# Data reported in patent US20240350481A1, “USE OF N-MYRISTOYL TRANSFERASE (NMT) INHIBITORS IN THE TREATMENT OF CANCER, AUTOIMMUNE DISORDERS, AND INFLAMMATORY DISORDERS” (PACYLEX PHARMACEUTICALS INC., priority 2020, published 2024).
# System: hematological cancer cell lines
# Test: Viability of hematological cancer cell lines in vitro (assay not given)
# Assay type: cell-based
# Settings: most hematological cancer cell lines in vitro
compound,measurement,value
Cc1c(N[S+](=O)([O-])c2c(Cl)cc(-c3ccnc(N4CCNCC4)c3)cc2Cl)c(CC(C)C)nn1C [PCLX-001],IC50,50 to 100 nM
